Experimental data: US5607937A, “Piperazides of substituted phenylalanine derivatives as thrombin inhibitors” (priority 1993, dated 1997)

Key:
[1] = test system: coagulation in rat plasma; test: thrombin time in rat plasma after rectal application; type: in vivo
Protocol: After rectal administration of the compounds to be tested, the anticoagulant effect was determined in the plasma of experimental animals.

plasmin = plasmin (Homo sapiens, UniProt P00747); test: inhibition of plasmin, dissociation constant Ki
Sequence of plasmin (P00747 581-810 limits assumed): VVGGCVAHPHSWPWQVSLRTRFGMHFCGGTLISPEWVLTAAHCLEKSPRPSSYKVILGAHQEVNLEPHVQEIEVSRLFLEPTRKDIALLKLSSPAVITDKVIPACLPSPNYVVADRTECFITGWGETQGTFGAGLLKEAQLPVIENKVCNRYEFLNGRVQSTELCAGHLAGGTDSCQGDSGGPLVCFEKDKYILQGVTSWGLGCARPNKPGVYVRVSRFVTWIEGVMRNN
Sequence of plasmin (P00747 97-580 partner limits assumed): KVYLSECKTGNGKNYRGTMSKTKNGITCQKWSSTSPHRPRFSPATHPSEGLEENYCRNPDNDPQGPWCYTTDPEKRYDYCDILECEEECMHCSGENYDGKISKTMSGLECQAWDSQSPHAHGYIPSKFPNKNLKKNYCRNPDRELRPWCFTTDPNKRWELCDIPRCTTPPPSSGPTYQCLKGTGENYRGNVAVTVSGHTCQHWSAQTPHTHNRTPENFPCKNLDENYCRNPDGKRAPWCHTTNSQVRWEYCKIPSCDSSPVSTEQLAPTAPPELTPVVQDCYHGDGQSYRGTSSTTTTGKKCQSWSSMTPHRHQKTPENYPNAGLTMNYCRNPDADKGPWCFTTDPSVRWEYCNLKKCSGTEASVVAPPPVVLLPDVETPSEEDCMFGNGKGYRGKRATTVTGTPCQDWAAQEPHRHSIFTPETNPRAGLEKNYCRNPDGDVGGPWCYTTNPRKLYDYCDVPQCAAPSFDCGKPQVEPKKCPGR

[2] = test system: stasis-induced venous thrombosis in the rat; test: antithrombotic efficacy, stasis-induced venous thrombosis model (Wessler); type: in vivo; details: for Thrombus scale 0 (vein segments): 0=liquid blood; for Thrombus scale 1 (vein segments): 1=one or several small thrombi; for Thrombus scale 2 (vein segments): 2=not fully closed vascular segment; for Thrombus scale 3 (vein segments): 3=fully closed vascular segment
Protocol: The antithrombotic activity of the compounds was determined in the rat on the model of the stasis-induced thrombosis according to Wessler et al. (J. Appl. Physiol. 14, 943-946, 1959). The thrombus was induced by serum 30 min after application of the inhibitor and macroscopically evaluated after 10 further min.
After rectal application, the compounds of the present invention are absorbed to an extent leading to antithrombotically active plasma levels. This has been shown with the model of the stasis-induced venous thrombosis in the rat according to Wessler et al. This method consisted in macroscopically evaluating thrombi induced by serum in jugular vein segments by means of a scale (0=liquid blood, 1=one or several small thrombi, 2=not fully closed vascular segment, 3=fully closed vascular segment). The antithrombotic effect is clearly dose-dependent.
The relative thrombus scale is the quotient of the mean thrombus size of the treated group (e.g. the mean value at 5 mg/kg is 1.2) and the mean thrombus size of the control group (2.9).

CC(=O)N1CCN(C(=O)[C@H](Cc2cccc(C(=N)N)c2)NS(=O)(=O)c2ccc3ccccc3c2)CC1.Cl [Compound 2, Nα-(2-naphthylsulfonyl)-(L)-3-amidinophenylalanine-4-acetylpiperazide hydrochloride]
Clotting time, Thrombin time ([1]; rectal 5 mg/kg, 0 min): 32 s
Clotting time, Thrombin time ([1]; rectal 5 mg/kg, 30 min): > 300 s
Clotting time, Thrombin time ([1]; rectal 5 mg/kg, 60 min): 224 s
Clotting time, Thrombin time ([1]; rectal 5 mg/kg, 120 min): 176 s
Clotting time, Thrombin time ([1]; rectal 5 mg/kg, 180 min): 107 s
Clotting time, Thrombin time ([1]; rectal 20 mg/kg, 0 min): 64 s
Clotting time, Thrombin time ([1]; rectal 20 mg/kg, 30 min): > 300 s
Clotting time, Thrombin time ([1]; rectal 20 mg/kg, 60 min): > 300 s
Clotting time, Thrombin time ([1]; rectal 20 mg/kg, 120 min): > 300 s
Clotting time, Thrombin time ([1]; rectal 20 mg/kg, 180 min): > 300 s
Ki (plasmin): 5.4 µM
Thrombus scale 0 (vein segments) ([2]; rectal 5 mg/kg): 0
Thrombus scale 1 (vein segments) ([2]; rectal 5 mg/kg): 8
Thrombus scale 2 (vein segments) ([2]; rectal 5 mg/kg): 2
Thrombus scale 3 (vein segments) ([2]; rectal 5 mg/kg): 0
mean thrombus size of the treated group ([2]; rectal 5 mg/kg, scale 0-3, control 2.9): 1.2
Thrombus scale 0 (vein segments) ([2]; rectal 20 mg/kg): 6
Thrombus scale 1 (vein segments) ([2]; rectal 20 mg/kg): 1
Thrombus scale 2 (vein segments) ([2]; rectal 20 mg/kg): 0
Thrombus scale 3 (vein segments) ([2]; rectal 20 mg/kg): 0
Thrombus scale 0 (vein segments) ([2]; rectal 100 mg/kg): 6
Thrombus scale 1 (vein segments) ([2]; rectal 100 mg/kg): 0
Thrombus scale 2 (vein segments) ([2]; rectal 100 mg/kg): 0
Thrombus scale 3 (vein segments) ([2]; rectal 100 mg/kg): 0
